The text below walks through data of paper PMC9953468, “In Silico, In Vitro, and Ex Vivo Biological Activity of Some Novel Mebeverine Precursors” (Biomedicines, 2023).

Values joined by “and” are separate entries in the source; they are usually repeats but may differ in a detail not shown here. Identical values can stand only once. “Also recorded” adds a separate entry of the source. Like-named read-outs stand apart in the source and are kept apart here. Marks after values point to notes of the source that are not given here.

In one data set the test system is 5-HT3 receptor. Nature of the data set: Immunohistochemical analysis of 5-HT3 expression in gastric SM strips. Details: species or system Wistar rats; key to 5-HT3 expression, 5-HT / 5-HT3 expression, Response to Compound: −: absent; +: low; ++: moderate; +++: strong. To be noted: for 5-HT3 expression, Response to Compound: SM preparations incubated with the compound; for 5-HT3 expression in SM preparations: immunohistochemical staining after 1 h incubation, in words. As to the method: […] Then, each SM strip was fixed in 10% neutral buffer formalin for 24–48 h and submitted for standard processing with hematoxylin and eosin staining.
The SM fragments from a rat’s gastric wall were fixed in a 10% neutral formalin solution and embedded in paraffin. Paraffin sections of 5 μm thickness were subjected to hematoxylin and eosin (H-E) staining for histochemical analysis.
Sections of the SM fragments from the wall of a rat’s stomach with a thickness of 5 µm were deparaffinized, then subjected to antigenic detection of the epitopes with citrate buffer, and an endogenous peroxidase blockade was made with hydrogen […] 3%, a kit was used to block the endogenous biotin, and a reagent was used to block non-specific binding (Superblock, Scy Tek, Santa Cruz Biotech. Inc. Heidelberg, Germany) follows incubate for 24 h (at 4 °C) with monoclonal mouse anti-5-HT3, next incubated with a secondary antibody: biotinylated anti-rabbit for 10 min at room temperature. The reaction was visualized with 3,3′-diaminobenzidine tetrachloride and counterstained with Mayer’s hematoxylin.
A quantitative and statistical analysis of immunohistochemical reaction using the Olympus DP-Soft image system (version 4.1 for Windows) was carried out on a Microphot-SA (Nikon, Japan) microscope equipped with a Camedia-5050 Z digital camera (Olympus, Japan). The analysis was performed on sections from the SM strips from the stomach of Wistar rats (n = 6 for each group). Five sections of the SM strips were measured, and the percentage of cells expressing 5-HT3 in the circular and longitudinal layer of SM cells, as well as in the myenteric plexus of the stomach, was determined. Each antibody was analyzed for five fields, in each of them the average number of cells with positive unit area response at ×200 magnification.

The test system of data set [1] is SM preparations from the corpus gastric muscle. The experiment in a line: Ex vivo bioelectrical activity of smooth muscle preparations, single sucrose gap method. Details: species or system Wistar rats. The conditions noted are these: 5 × 10^−5 M; for Amplitude of slow waves, Measured value / Amplitude of spike potentials, Measured value / Number of slow waves, Measured value / Number of spike potentials, Measured value: 10 min, n = 7, mean ± SEM; for effect on bioelectrical activity (slow waves, spike potentials): in words; for Changes in the membrane potential: base activity taken as 100%, ↑ depolarization, ↓ hyperpolarization. As to the method:
Adult male Wistar rats weighing 280–300 g were used. Animals were housed in standard laboratory conditions (23 to 25 °C, 50–55% humidity, 12/12 h light/dark cycle), while food and water were provided ad libitum.
Circular SM preparations were dissected from the corpus gastric muscle (26–28 mm long and 0.8–0.9 mm wide; without mucosa). Two or three muscle strips were taken from the rat stomach. The number of SM preparations used for each data point is indicated by n. After dissection, the tissues must prevent loss of viability, so during the dissection, the tissues were systematically moistened with a solution (NaCl:KCl:CaCl2 in ratio 27.2:1.1:1) prepared at 4 °C.
The BEA of SM preparations was investigated by means of the single sucrose gap method with silver non-polarizable freshly chlorinated electrodes. The muscle strips were divided into 3 zones: two electrode sections were flushed with isotonic KCl solution and Krebs solution (pH 7.3), respectively, and separated by a sucrose layer of high electric resistance. Krebs contained the following (in mM): NaCl 120; KCl 5.9; CaCl2 2.5; MgCl2 1.2; NaH2PO4 1.2; NaHCO3 15.4; glucose 11.5. All the ingredients for this solution were of analytical grade and obtained from Merck (Darmstadt, Germany). Deionized water (18.2 mX/cm^2) was used thoroughly. The KCl solution is similar to the Krebs solution but with an equimolar substitution of NaCl with KCl. An isotonic sucrose solution, due to its very high specific resistance (about 10^6 Ω·cm), provides the best possible separation of the sucrose solution from the physiological solution in the “normal” pool, on the one hand, and the solution providing a zero value of the membrane potential in the pool with another recording electrode.
The inflow rate of each solution (Krebs, KCl, and isotonic sucrose solution) was controlled by a needle valve and continuously aerated with a mixture of 95% O2 and 5% CO2, and the temperature was maintained at 37 °C. A potential difference between the two end sections of the gap (control conditions) was achieved by means of silver non-polarizable, freshly chlorinated electrodes and after a 40-min period of adaptation and stabilization was accepted as the initial (control). The Krebs solution was changed several times during the adaptation period. The viability of the SM preparations was periodically tested by treatment with 1 × 10^−6 M ACh.
The membrane potential value was visualized by means of a Linseis recorder (Selb, Germany). A pair of measuring electrodes is located on both sides of the sucrose sections. The pH (pH 7.3; 37 °C) of the Krebs bathing solution was measured before each experiment by pH-meter HI5521 (Hanna Instruments Inc., Woonsocket, RI, USA). […]
The new substances were dissolved initially in dimethyl sulphoxide (DMSO) to prepare a 5 × 10^−2 M stock solution. Further dilutions were made in distilled deionized water and were applied by adding aliquots of their concentrated solutions to the tissue bath.

Data set [2] can be described thus: MTT cell viability assay. In kind it is cell-based, human. The conditions noted are these: human, ± SD, read-out: In vitro cytotoxicity (IC50). As to the method:
(§1) In order to evaluate the in vitro biocompatibility of the experimental compounds, a series of cell viability assays were performed against human malignant leukemic cell lines (LAMA-84, K-562) as well as normal murine fibroblast cells (CCL-1). All cell lines were purchased from the German Collection of Microorganisms and Cell Cultures (DSMZ GmbH, Braunschweig, Germany). Cell cultures were cultivated in a growth medium RPMI 1640 supplemented with 10% fetal bovine serum (FBS), 5% L-glutamine, and incubated under standard conditions of 37 °C and 5% humidified CO2 atmosphere.
(§2) The experimental design involved a number of cytotoxicity assays that measured cell growth inhibition by the newly synthesized compounds. Cell viability was evaluated using a standard MTT-based colorimetric assay. Exponential-phased cells were harvested and seeded (100 μL/well) in 96-well plates at the appropriate density (3 × 10^5) for the suspension cultures (LAMA-84 and K-562) and 1.5 × 10^5 for the adherent one (CCL-1). Cells were treated and incubated with various concentrations of the experimental compounds in the concentration range of 400-6.25 µM. After exposure time of 72 h, a filter-sterilized MTT substrate solution (5 mg/mL in PBS) was added to each well of the culture plate. A further 1–4 h incubation allowed for the formation of purple insoluble formazan precipitates. The latter were dissolved in isopropyl alcohol solution containing 5% formic acid prior to absorbance measurement at 550 nm using a microplate reader (Labexim LMR-1). Collected absorbance values were blanked against MTT and isopropanol solution and normalized to the mean value of the untreated control (100% cell viability). Semi-logarithmic “dose–response” curves were constructed and the half-inhibitory concentrations of the screened compounds against each tested cell line were calculated. Values of p ≤ 0.05 were considered statistically significant.

Data set [3] is described as follows: MTT cell viability assay. It counts as cell-based. To be noted: mouse, CCL-1 normal fibroblast cells, CCL-1, normal murine fibroblast cells, read-out: In vitro cytotoxicity (IC50). As to the method: as §1, §2
[4] abbreviates: K-562 cells (blast phase chronic myeloid leukemia), K-562, Blast phase CML (bcr-abl+).
[5] abbreviates: LAMA-84, CML in blast crisis (bcr-abl+).

For the compound `CC(C)C(Cc1ccccc1)NC(=O)c1ccccc1` (stereo not shown) [Compound 4b, N-(3-methyl-1-phenylbutan-2-yl)benzamide], in the data set on 5-HT3 receptor, the “5-HT3 expression, Response to Compound” value is on record as “−” and the “5-HT3 expression in SM preparations” value is given as “no modulation on the 5-HT3R expression; also recorded: no 5-HT3 expression observed”. In data set [1], the “Amplitude of slow waves, Measured value” was determined as 5.09 ± 0.10 mV; the “Amplitude of spike potentials, Measured value” (shortened to “Amplitude of spike potentials”) came out at 1.40 ± 0.12 mV; the “Number of slow waves, Measured value” came to 4.50 ± 0.49 min⁻¹; the “Number of spike potentials, Measured value” (shortened to “Number of spike potentials”) came out at 22.28 ± 0.18 min⁻¹. Further, in data set [1], the “effect on bioelectrical activity (slow waves, spike potentials)” value was “do not affect the BEA” and the “Changes in the membrane potential” value is reported as 0%. For the same compound, the IC50 at 72 h in the data set “MTT cell viability assay [2]” (setting [4]) is 329 ± 20.4 µM. Moreover, the IC50 at 72 h in “MTT cell viability assay [2]” (setting [5]) stood at 265 ± 20.2 µM. Further, the half-inhibitory concentration (IC50) at 72 h in the data set “MTT cell viability assay [3]” is greater than 300 µM.

With `NCCc1c[nH]c2ccc(O)cc12` [Compound 5-HT, 5-hydroxytryptamine, reference compound], in the data set with 5-HT3 receptor (SM preparations incubated with 5-HT, one per compound series), the “5-HT3 expression, 5-HT” value is on record as “++”. Moreover, the “5-HT3 expression in SM preparations” value in the data set with 5-HT3 receptor was “higher number of 5-HT3R positive cells per section and 5-HT3 expression observed in the myenteric plexus”.

On to `CC(C)C(Cc1ccccc1)NC(=O)c1ccccc1Cl` (stereo not shown) [Compound 4c, 2-Chloro-N-(3-methyl-1-phenylbutan-2-yl)benzamide], for which, in the data set on 5-HT3 receptor, the “5-HT3 expression, Response to Compound” value is given as “−” and the “5-HT3 expression in SM preparations” value is on record as “no modulation on the 5-HT3R expression; also recorded: no 5-HT3 expression observed”. Moreover, in data set [1], the “Amplitude of slow waves, Measured value” is on record as 5.34 ± 0.20 mV; the “Amplitude of spike potentials” value worked out at 1.56 ± 0.17 mV; the “Number of slow waves, Measured value” is 4.42 ± 0.41 min⁻¹; the “Number of spike potentials” value stood at 26.16 ± 0.26 min⁻¹. In addition, in data set [1], the “effect on bioelectrical activity (slow waves, spike potentials)” value is reported as “do not affect the BEA” and the “Changes in the membrane potential” value is 0%. For the same compound, the IC50 at 72 h in the data set “MTT cell viability assay [2]” (setting [4]) is 367 ± 8.4 µM. The IC50 at 72 h in the data set “MTT cell viability assay [2]” (setting [5]) was determined as 266 ± 16.8 µM. Besides, in “MTT cell viability assay [3]”, the half-inhibitory concentration (IC50) at 72 h was greater than 300 µM.

In the case of `CC(C)C(Cc1ccccc1)NC(=O)Cc1ccccc1` (stereo not shown) [Compound 4d, N-(3-methyl-1-phenylbutan-2-yl)-2-phenylacetamide], in the data set on 5-HT3 receptor, the “5-HT3 expression, Response to Compound” value was “+” and the “5-HT3 expression in SM preparations” value is recorded as “very weak non-specific effect; also recorded: weak 5-HT3 expression observed”. Also, in data set [1], the “Amplitude of slow waves, Measured value” is on record as 4.97 ± 0.29 mV; the “Amplitude of spike potentials” value was 0 * mV; the “Number of slow waves, Measured value” came out at 4.82 ± 0.24 min⁻¹; the “Number of spike potentials” value was 0 * min^−1. For the same compound, the “Changes in the membrane potential” value in data set [1] is on record as 0%. Besides, in the data set “MTT cell viability assay [2]” (setting [4]), the IC50 at 72 h is 244 ± 18.5 µM. The IC50 at 72 h in “MTT cell viability assay [2]” (setting [5]) came out at 328 ± 15.9 µM. The half-inhibitory concentration (IC50) at 72 h in the data set “MTT cell viability assay [3]” was greater than 300 µM.
